Assay [1] concerns conversion of Cer to SM in intact cells. The assay can be described thus: Conversion of [3H]Cer to [3H]SM in intact cells ([3H]sphingosine pulse-chase). It counts as cell-based, Chinese hamster. As to conditions: 1 μM; chase at 33° C. up to 1 hour with fumonisin B1. As to the method:
The measurement of conversion of [^3H] Cer to [^3H] SM in cells is performed by a modified method of the method disclosed in Document 1. That is, as the first step, cells are pulse-labeled in 1.5 mL of Nutridoma medium containing 1 μM D-erythro-[^3H] sphingosine (2.5 μCi). After washed, the cells are incubated in 1.5 mL of Nutridoma medium supplemented with or without 1 μM HPA-12 at 4° C. for 15 minutes, then incubated under the presence of 100 μM fumonisin B, at 33° C. for various periods of time for chase.
The lipids are extracted from the chased cells, and separated by TLC with a developing solvent consisting of chloroform/methanol/H2O (volume ratio, 65:25:4). Then, the radioactivity of each lipid is measured by the method mentioned above.
To examine the inhibitory effect of HPA-12 on the step of Cer-to-SM conversion specifically, metabolic labeling experiments with [^3H] sphingosine are carried out. When cells are labelled with [^3H] sphingosine at 15° C., [^3H] sphingosine is effectively N-acylated and converted to [^3H] Cer, but, [^3H] Cer is not converted to [^3H] SM at this temperature (Document 2). After the labeling with [^3H] sphingosine at low temperature to generate [^3H] Cer, the cells are treated with 1 μM HPA-12 at 4° C. for 15 minutes, and then incubated at 33° C. up to 1 hour for chase. During the chase, de novo synthesis of [^3H] […]

The test system of assay [2] is CHO cells. The assay can be described thus: Contents of sphingolipids and phospholipids in cells. It counts as cell-based, Chinese hamster. The conditions noted are these: 2.5 μM, 2 days. The method, then:
CHO cells are seeded at density of 10×10^6 cells in 20 mL of F12 medium containing 10% NBS by per 150-mm dish, and incubated at 33° C. overnight. Then, after washed twice with 10 mL of serum-free F 12 medium, the cells are incubated in 20 mL of Nutridoma medium supplemented with or without 2.5 μM HPA-12 for 2 days. Each medium is replaced every 24 hours. After washed with PBS, the cells are harvested by scraping, and re-suspended in PBS. Then, lipids are extracted from the cells.
For analysis of phospholipids, extracted lipids are separated by TLC with a solvent of chloroform/methanol/acetic acid/H2O (volume ratio, 25:15:4:2).
Phosphorous contents in phospholipids are measured by the method disclosed in Document 4.
Contents of GlcCer and N-acetyl neuraminil lactosylseramide (GM3) are determined by densitometric analysis of lipids stained with Coomassie Brilliant Blue disclosed in Document 5.
Cer contents are determined by using a sn-1,2-diacylglycerol assay reagent kit (Amersham Pharmcia Biotech).

Assay [3] deals with sphingosine N-acyl transferase. The assay can be described thus: Sphingosine N-acyl transferase activity, CHO membrane fraction. Format: biochemical, Chinese hamster. As to conditions: 20 μM; data not shown. As to the method: Membrane fraction prepared from CHO cells is used as an enzyme source.
Serine palmitoyltransferase activity is determined by the method disclosed in Document 7, and sphingosine N-acyl transferase activity is determined by a modification of the method disclosed in Document 7.

Assay [4] concerns SM synthesis in BFA-treated cells. Briefly: [14C]serine labeling in BFA-treated cells (ER and Golgi merged). It counts as cell-based, Chinese hamster. The conditions noted are these: 1 μM; cells treated with 1 μg/mL BFA (FIG. 5). As to the method:
For the metabolic labeling by [^14C] serine in BFA-treated cells, the cells are preincubated with 1 μg/mL BFA in Nutridoma medium at 33° C. for 30 minutes, then, treated with or without 1 μM HPA-12 in the presence of 1 μg/mL BFA at 4° C. for 15 minutes prior to addition of [^14C] serine.

Assay [5] has as its system transport of Cer from the ER to the Golgi apparatus. The assay can be described thus: Intracellular redistribution and metabolism of C5-DMB-Cer. Format: cell-based, Chinese hamster. The method, then:
After CHO cells seeded in 60-mm dishes are cultured overnight, said CHO cells are labeled with 1 μM C5-DMB-Cer in 1.5 mL of Nutridoma medium at 4° C. for 30 minutes. Then, after obtained said cells are washed 3 times with F12 medium, said cells are incubated in Nutridoma medium in the presence or absence of 2.5 μM HPA-12 for 15 minutes at 4° C., and then further incubated at 33° C. for various periods of time.
After washed with PBS, the chased cells are lysed with 0.1% SDS as mentioned above. The lipids extracted from cell lysate are separated by high performance TLC with a solvent of chloroform/methanol/H2O (volume ratio, 65:25:4). Quantitative measurement of C5-DMB-SM and C5-DMB-Cer are performed by scraping gel from TLC plates, extracting by chloroform/methanol/H2O (volume ratio, 1:2:0.8), and by measuring DMB fluorescence (excitation wave length 480 nm, emission wave length 515 nm) of the extracted product.
After CHO cells grown on the glass coverslip (22-mm diameter) in 35 mm dishes are incubated in F12 medium containing 1 μM C5-DMB-Cer at 4[…] for 30 minutes for pulse label, washed three times with 1 mL of F12 medium, and incubated in 1 mL of Nutridoma medium in the presence or absence of 2.5 μM HPA-12 at 4° C. for 15 minutes. Then, the pulse-labeled cells are incubated at 33° C. for 15 minutes for chase, washed with PBS containing 0.125% glutaraldehyde at 4° C. for 5 minutes. […]

The structures appear in SMILES notation.

Take `CCCCCCCCCCCC(=O)NC(CO)CC(O)c1ccccc1` (stereo not drawn) [HPA-12, N-(3-hydroxy-1-hydroxymethyl-3-phenylprol)dodecaneamide]: in assay [1], the “formation of [3H]GlcCer” value is “does not inhibit and rather increases”; the “inhibition of formation of [3H]SM” value was 50%. Further, in assay [2], the “content of GM3” value is reported as 120 % of the drug-untreated contro; the “content of GlcCer” value is reported as 150 % of the drug-untreated contro; the “content of SM, lower than the drug-free control level by” value is 30%; the “content of ceramide vs untreated” value is listed as “no significant difference”. Besides, in assay [2] (CHO cells), the Cer content came out at 0.40 ± 0.13 nmol/mg protein, the GM3 content amounted to 8.5 ± 0.8 nmol/mg protein, the GlcCer content worked out at 1.4 ± 0.1 nmol/mg protein and the “PC content (composition of phospholipids)” value was 47.5 ± 0.2 % of total lipids recovered. Also, in assay [2] (CHO cells), the “PE content (composition of phospholipids)” value was 30.6 ± 0.3 % of total lipids recovered, the “PI/PS content (composition of phospholipids)” value is recorded as 13.4 ± 0.3 % of total lipids recovered and the “SM content (composition of phospholipids)” value is 8.4 ± 0.1 % of total lipids recovered. The “content of total phospholipids” value in assay [2] (drug-treated cells) was 315±2 nmol/mg protein. Moreover, the “activity of sphingosine N-acyl transferase” value in assay [3] is “does not affect”. Further, the “formation of [14C]serine-derived SM” value in assay [4] is listed as “no longer inhibits”. The “accumulation of DMB-fluorescence to the perinuclear Golgi region vs untreated control” value in assay [5] (2.5 μM, chase at 33° C. for 15 minutes) is on record as “clearly lower”. Besides, the “inhibition of conversion of C5-DMB-Cer to C5-DMB-SM” value in assay [5] (HPA-12 treated cells, data not shown) is reported as 50%.
